This note sets out measurements from a melting point compilation (Tetko et al.; mined from patent text by program, amines drawn as free bases though some values may be those of a salt).

For orientation: melting point means the temperature, or range, at which the solid turns liquid.

Residues, ends and D or L forms follow the SMILES beside them. *: point of attachment. Cbz = O=C(OCc1ccccc1)*; Bn = c1ccc(C*)cc1

In turn, `CCNC(=O)C(COCc1ccccc1)NC(=O)C(Cc1ccc(OCc2ccccc2)cc1)NC(=O)C(Cc1c[nH]cn1)NC(=O)OCc1ccccc1` (stereo not drawn) (Cbz-His-Tyr(Bn)-Ser(Bn)-NHEt; configuration not given here) came in with a melting point of 182 to 188 °C. Then `O=C(O)CCCCCCCCCCn1nc(-c2ccccc2)c(-c2ccccc2)c1-c1ccccc1`, with 81.5 to 84 °C; and `Cc1ccc(Oc2ccc(C)cc2C(=O)O)cc1`, with 113 to 115 °C; and `Cn1cc(-c2cc(-c3cnc4[nH]ccc4c3)ccn2)n(-c2ccc(CC#N)cc2)c1=O`, with 252 °C. Then `COc1ccc2oc(Cc3cccc(F)c3)c(CC#N)c2c1`, with 67 °C; and `Cc1coc(NC(=S)Nc2ccc(Cl)cc2C)n1`, with 214 °C. Then `O=C1c2ccccc2C(=O)N1OS(=O)(=O)c1ccc2ccccc2c1`, with 223 to 225 °C; and `N#Cc1c(-c2ccccc2)[nH]c(Cl)c1Cl`, with 254 to 255 °C. The compound `NS(=O)(=O)c1ccc(N2CCN(CC[C@@H]3OCCc4cc(Br)ccc43)CC2)c(Br)c1` showed a melting point of 206 to 208 °C. As for `O=C(c1ccccc1)c1ccc(F)c([N+](=O)[O-])c1`, the figure is 59 °C; as for `CCCCCS(=O)(=O)NC(=O)CCCc1ccc(OCCOCC)cc1Oc1ncc(C(F)(F)F)cc1Cl`, 96 to 97 °C; as for `CN(C)c1ccc(C=C2C=C(C(C)(C)C)C(=O)C(C(C)(C)C)=C2)cc1`, 175 °C. Then `CCCCCCOC(=O)C(CSC(=O)C(C)c1ccc(CC(C)C)cc1)NC(C)=O` (stereo not drawn), with 40 to 45 °C; and `O=C1NCCc2c1c1cccc(F)c1n2COCc1ccccc1`, with 130 to 132 °C. In the case of `O=C(Cn1ccnc1)c1ccc(-c2ccccc2)cc1`, the melting point came to 198 °C.

As to `Cc1cc(C)n(CC(C)C)c(=O)c1C(=O)O`, the melting point was in the range of 93 to 95 °C. `O=C1CCN(Cc2cccnc2)CC1C(c1ccccc1)c1ccccc1` (stereo not drawn) displayed a melting point of 121 to 122 °C. Then `COC1CC2C3CCC4=CC(=O)CCC4(C)C3(F)CCC2(C)C1(OC(C)=O)C(=O)CCl` (stereo not drawn), with 241 to 244 °C; and `O=C(NCCCCO)c1ccc2c(c1)OCO2`, with 95 to 98 °C.

For the compound `COc1ccc(-c2nc(N)ncc2-c2ccc(=O)[nH]n2)cc1`, the melting point amounted to 142 °C. Then `Clc1cccc(Nc2ncc3cc4ccccc4n3n2)c1`, with 174 to 176 °C; and `CC12CCC(OC(=O)c3ccc(O)cc3)CC1=CCC1C2CCC2(C)C(=NO)CCC12` (stereo not drawn), with 177 to 182 °C; and `[N-]=[N+]=NS(=O)(=O)c1ccccc1[N+](=O)[O-]`, with 73 to 74 °C. As for `O=[N+]([O-])c1cccc(S(=O)(=O)Nc2nncs2)c1`, the figure is 189 to 192 °C; as for `CCc1cc(NC(=O)c2ccc(OC)c(OC)c2)ccc1C(C)(C)CNC(C)=O`, 203 to 206 °C; as for `CCOC(=O)COc1ccc(C(C)=O)cc1NC(=O)c1ccc(OCCCCc2ccccc2)cc1`, 105 to 107 °C. Then `Cc1ccnc2c1nc(-c1cccnc1N)n2-c1ccc(CN)cc1`, with 210 to 212 °C; and `c1ccc(-c2ccc3[nH]c4c(ccc5cc[nH]c54)c3c2)cc1`, with more than 250 °C; and `COC(=O)c1c(C(=O)OC)c(-c2ccc(OC)cc2)c2cc3c(cc2c1O)OCO3`, with 169 to 171 °C. The compound `Clc1cccc(N2CCN(CCCCOc3ccc4cn[nH]c4c3)CC2)c1Cl` gave a melting point of 101 to 103 °C. `Cc1nc2cccc(OC3CCN(C(=O)C(C)C)CC3)c2c(N)c1C(=O)O`: the melting point lay in the range of 184 to 186 °C. As for `FC(F)c1nc2ccccc2n1-c1nc(-c2cncnc2)cc(N2CCOCC2)n1`, the figure is 209 to 211 °C. The compound `C=C(c1ccc(C(C)C)cc1)c1c(C)c(NC(=O)CCCC)c(C)c2c1OCC2` came in with a melting point of 172 to 173 °C.
